Source: ChEMBL document CHEMBL1128430, “1,1-Bisphosphonate squalene synthase inhibitors: interplay between the isoprenoid subunit and the diphosphate surrogate” (J Med Chem, 1995)
Calls of active or inactive are those of the source. The calls are words filed in the database; no cut-off is given here.

Assays:
Squalene synthase = target: T1, Squalene synthase (Rattus norvegicus, UniProt Q02769); experiment: Inhibition rat liver microsomal squalene synthase
T1 sequence (Q02769 whole entry): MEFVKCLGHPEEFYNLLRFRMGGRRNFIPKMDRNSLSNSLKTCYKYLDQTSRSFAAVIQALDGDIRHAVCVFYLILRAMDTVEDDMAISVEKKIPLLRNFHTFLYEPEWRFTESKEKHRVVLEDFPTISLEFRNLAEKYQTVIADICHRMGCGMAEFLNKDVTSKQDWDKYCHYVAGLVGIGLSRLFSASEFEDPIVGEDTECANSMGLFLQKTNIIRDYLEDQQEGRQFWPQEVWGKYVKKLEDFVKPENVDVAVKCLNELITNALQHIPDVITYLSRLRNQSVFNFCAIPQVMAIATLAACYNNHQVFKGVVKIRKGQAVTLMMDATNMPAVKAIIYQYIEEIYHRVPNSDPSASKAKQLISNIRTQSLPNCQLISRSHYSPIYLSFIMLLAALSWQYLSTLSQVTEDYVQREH

[1] = target: T2, Squalene synthase (Rattus norvegicus) (UniProt Q02769); conditions: 30 mg/kg
T2 sequence (whole entry): T1 sequence (Q02769 whole entry)

[2] = target: T2, Squalene synthase (Rattus norvegicus); experiment: Effective dose to inhibit rat liver microsomal Squalene synthase was determined by peroral administration at a dose of 15 mg/kg; inactive; type: organism-based; design: dose 15 mg/kg
[3] = target: T2, Squalene synthase (Rattus norvegicus); experiment: Effective dose to inhibit rat liver microsomal Squalene Synthase was determined by intravenous administration
[4] = target: T2, Squalene synthase (Rattus norvegicus); experiment: Effective dose to inhibit rat liver microsomal Squalene Synthase was determined by peroral administration at 15 mg/kg dose; type: organism-based; design: dose 15 mg/kg
[5] = target: T2, Squalene synthase (Rattus norvegicus); experiment: Effective dose to inhibit rat liver microsomal Squalene Synthase was determined by peroral administration
[6] = target: T2, Squalene synthase (Rattus norvegicus); experiment: Effective dose to inhibit rat liver microsomal Squalene Synthase was determined by peroral administration at a dose of 30 mg/kg; In active; type: organism-based; design: dose 30 mg/kg

| SMILES | IC50 (Squalene synthase) [nM] | other results |
| --- | --- | --- |
| CC(C)=CCC/C(C)=C/CC(P(C)(=O)O)P(=O)(O)O (configuration not stated) | 8600 |  |
| CC(C)=CCC/C(C)=C/CC/C(C)=C/CCCC(C(=O)O)P(=O)(O)O (configuration not stated) | 880 |  |
| CC(C)=CCC/C(C)=C/CCCCCCC(P(C)(=O)O)P(=O)(O)O (configuration not stated) | 374 |  |
| CC(C)=CCC/C(C)=C/CC/C(C)=C/CC(P(=O)(O)O)P(=O)(O)O | 32.4 |  |
| CC(C)=CCC/C(C)=C/CC(P(=O)(O)O)P(=O)(O)O | 35.5 | ED50 [2]: inactive |
| CC(C)=CCC/C(C)=C/CCCC(P(=O)(O)O)P(=O)(O)CO (configuration not stated) | 38.7 |  |
| CC(C)=CCC/C(C)=C/CC/C(C)=C/CC(P(C)(=O)O)P(=O)(O)O (configuration not stated) | 106 |  |
| CC(C)=CCC/C(C)=C/CCCC([PH](=O)O)P(=O)(O)O (configuration not stated) | 4 |  |
| CC(C)=CCC/C(C)=C/CCC(P(=O)(O)O)P(=O)(O)O | 77.7 |  |
| CC(C)=CCC/C(C)=C/CCCC(C(=O)O)P(=O)(O)O (configuration not stated) | 1650 |  |
| O=C(O)C(CCCc1ccc(-c2ccccc2)cc1)P(=O)(O)O (configuration not stated) | 2200 |  |
| CC(C)=CCC/C(C)=C/CCCC(P(C)(=O)O)P(=O)(O)O (configuration not stated) | 81 |  |
| CC(C)=CCC/C(C)=C/CCCCC(P(C)(=O)O)P(=O)(O)O (configuration not stated) | 605 |  |
| CP(=O)(O)C(CCCc1ccc(-c2ccccc2)cc1)P(=O)(O)O (configuration not stated) | 490 |  |
| CC(C)=CCCCC(P(=O)(O)O)P(=O)(O)O | 6600 |  |

The remaining compounds from weak to strong by IC50 (Squalene synthase), led by results:

| IC50 (Squalene synthase) [nM] | SMILES | other results |
| --- | --- | --- |
| 30.7 | CC(C)=CCC/C(C)=C/CCCCCC(P(C)(=O)O)P(=O)(O)O (configuration not stated) |  |
| 23.9 | O=P(O)(O)C(CCCc1ccc(-c2ccccc2)cc1)P(=O)(O)CO (configuration not stated) |  |
| 17.6 | CC(C)=CCC/C(C)=C/CCCCCCC(P(=O)(O)O)P(=O)(O)O | inhibition [1]: 25% |
| 14.8 | COCP(=O)(O)C(CCCc1ccc(-c2ccccc2)cc1)P(=O)(O)O (configuration not stated) |  |
| 13.1 | COCP(=O)(O)C(CCC/C=C(\C)CCC=C(C)C)P(=O)(O)O (configuration not stated) |  |
| 12.9 | CC(C)=CCC/C(C)=C/CC/C(C)=C/CCCC(P(C)(=O)O)P(=O)(O)O (configuration not stated) |  |
| 11.8 | CC(C)=CCC/C(C)=C/CC/C(C)=C/CCCCCCC(P(=O)(O)O)P(=O)(O)O | ED50 [3]: 0.13 mg/kg; inhibition [4]: 26% |
| 8.7 | CC(C)=CCC/C(C)=C/CCCCCCCC(P(C)(=O)O)P(=O)(O)O (configuration not stated) |  |
| 6.5 | CC(C)=CCC/C(C)=C/CC/C(C)=C/CCCCC(P(C)(=O)O)P(=O)(O)O (configuration not stated) |  |
| 6.5 | COCP(=O)(O)C(CCC/C=C(\C)CC/C=C(\C)CCC=C(C)C)P(=O)(O)O (configuration not stated) |  |
| 4.7 | CC(C)=CCC/C(C)=C/CC/C(C)=C/CCCC(P(=O)(O)O)P(=O)(O)CO (configuration not stated) |  |
| 4.2 | CC(C)=CCC/C(C)=C/CCCCCCCC(P(=O)(O)O)P(=O)(O)O | ED50 [3]: 0.05 mg/kg; ED50 [6]: inactive |
| 2.6 | CC(C)=CCC/C(C)=C/CCCCC(P(=O)(O)O)P(=O)(O)O |  |
| 2.5 | CC(C)=CCC/C(C)=C/CCCCCC(P(=O)(O)O)P(=O)(O)O | ED50 [3]: 0.04 mg/kg; ED50 [5]: 1.1 mg/kg |
